According to patent US20240294881A1, “CELL CULTURE SUPPLEMENT FOR PRODUCING STEM CELLS, AND METHOD FOR PRODUCING STEM CELLS” (OPTICELL, INC, priority 2021, published 2024):

Tests used:
Assay type in all cases: cell-based
[1] = tested on: HOS-143B (human osteosarcoma); assay: Study of concentration of cell culture supplement: spheroid formation; settings: 96-well flat-bottom plate, 3 days of culture
Description: An aqueous solution of the polypeptide represented by formula (1) (0.5%) was diluted 4-fold to 1024-fold to prepare different diluted solutions (cell culture supplement), and 100 μl of the solution was added to each well of a commercial 96-well flat-bottom plate (CellBIND, Corning) and allowed to stand at 4° C. for 16 hours.
Thereafter, the excess cell culture supplement was removed, and the remaining solution was dried under reduced pressure at room temperature for 24 hours. HOS-143B (human osteosarcoma) was seeded at 3,000 cells/well in a culture plate coated with the cell culture supplement and cultured at 37° C. under 5% CO2 conditions. The medium used was DMEM+10% FBS.

[2] = tested on: healthy human adult skin fibroblasts; assay: Real-time PCR of stem cell and triploblastic marker genes in adult skin fibroblast spheroids; settings: day 20 of 3D spheroid culture, ΔΔCt
Description: An aqueous solution of the polypeptide represented by formula (1) (0.125%) (cell culture supplement) was added to a commercial polystyrene-made 96-well round-bottom culture vessel (Nuncion Delta 96U Bottom, Thermo Fisher Scientific) and allowed to stand at 4° C. for 24 hours. The cell culture supplement solution was then removed and the coated cell culture supplement was dried in a dryer at 37° C. for 96 hours to complete the cell culture supplement coating process. Healthy human adult skin fibroblasts (Lonza, normal human dermal fibroblast-adult, referred to as “adult skin fibroblasts” below) were maintained and cultured in a serum-free medium (Fujifilm Wako Pure Chemical Corporation; DMEM/F12 medium, human serum albumin recombinant 0.5 mg/mL, human transferrin recombinant 10 μg/mL, basic-FGF 5 ng/ml, and insulin 2.5 μg/mL). Adult skin fibroblasts floating in 100 μL of the medium were seeded in the 96-well round-bottom culture vessel coated with the cell culture supplement at 2×10^4 cells/well and cultured at 37° C. under 5% CO2 conditions.
The detection of stem cell marker genes was performed by analysis of the expression of mRNA by real-time PCR. Specifically, on day 20 from the start of culture, spheroids were collected in a 15-mL centrifuge tube and centrifuged, followed by washing the cells with phosphate buffered saline(−) and collecting the cells. Cells two-dimensionally cultured in a culture vessel not treated with the cell culture supplement (control) (day 0) were washed with PBS (−) after removal of the medium. The cells were detached from the plate with 0.05% trypsin-EGTA and dissociated, followed by collecting the cells in a 15-mL centrifuge tube and washing again with PBS(−) again. A NucleoZOL (Macherey-Nagel) reagent was added to the spheroids, and RNA was extracted according to the protocol recommended by the reagent manufacturer and determined to be template RNA. For real-time PCR analysis, PCR probes from QuantiFast Probe RT-PCR Kits (QIAGEN; No. 204454) and TaqMan Gene Expression Assay Probe (Thermo Fisher Scientific) were used. PCR analysis was performed with a Rotor-Gene Q (QIAGEN) apparatus. For detection of genes, three transcription factors were used as probes for detecting the expression of undifferentiated stem cell marker genes: SOX2 (sex-determining region Y-box 2), OCT4 (octamer binding transcription factor 4), and NANOG (homeodomain transcription factor); and β-actin was used as an endogenous control gene (FIG. 13).
To determine whether stem cells induced in spheroids can differentiate into primordial three germ layers, the expression of triploblastic marker genes was examined by real-time PCR. For probes for detection, the following four triploblastic marker genes were used: SOX17 (sex-determining region Y-box 17; endoderm), GATA6 (GATA family of zinc finger transcription factors; endoderm), HAND1 (heart-and neural crest derivatives-expressed protein 1; mesoderm), and SOX1 (HMG-box (high mobility group) DNA-binding domain; ectoderm). For an endogenous control gene, TaqMan Gene Expression Assay Probe (ß-actin) was used (FIG. 14). In the gene expression analysis, relative quantification was performed according to the ΔΔCt method (Delta Delta Ct method). The results of analysis according to the ΔΔCt method show the amount of a gene expressed by control cells under the conditions of “no cell culture supplement, flat-bottom 2D growth, day 0” as “1.0” in relative terms, and the increase rate in “the expression level in spheroid proliferation on day 20” was determined by comparison.

[3] = tested on: healthy human adult mammary gland epithelial cells; assay: Real-time PCR of stem cell and three germ layer marker genes in mammary gland epithelial cell spheroids
Description: The analysis of expression of gene mRNA was performed by real-time PCR.
Specifically, on day 20 from the start of culture, spheroids were collected in a 15-mL centrifuge tube and centrifuged, and then washed with phosphate buffered saline (−) and collected. Two-dimensionally cultured cells in the culture vessel that was not coated with the cell culture supplement (control) (day 0) were washed with PBS (−) after removal of the medium, and the cells were detached from the plate with 0.05% trypsin-EGTA and dissociated, followed by collecting the cells in a 15-mL centrifuge tube and washing with PBS (−) again. A NucleoZOL reagent (Macherey-Nagel) was added to the spheroids, and RNA extracted according to the protocol recommended by the reagent manufacturer was determined to be template RNA. For real-time PCR analysis, PCR probes from QuantiFast Probe RT-PCR Kits (QIAGEN; No. 204454) and TagMan Gene Expression Assay Probe (Thermo Fisher Scientific) were used. PCR analysis was performed with a Rotor-Gene Q (QIAGEN) apparatus. The genes targeted for detection were the following three transcription factors: SOX2 (sex-determining region Y-box 2), OCT4 (octamer binding transcription factor 4), and NANOG (homeodomain transcription factor) as the probes for detecting the expression of undifferentiated stem cell marker genes; and β-actin was used as an endogenous control gene (FIG. 16).
For probes for detection of genes associated with primordial three germ layers, the following three triploblastic marker genes were used: SOX17 (sex-determining region Y-box 17; endoderm), GATA6 (GATA family of zinc finger transcription factors; mesoderm), and MAP2 (microtubule associated protein 2: ectoderm). For an endogenous control gene, TaqMan Gene Expression Assay Probe of ß-actin was used (FIG. 17).
In the gene expression analysis, relative quantification was performed according to the ΔΔCt method (Delta Delta Ct method). The results of analysis according to the ΔΔCt method show the amount of a gene expressed by control cells under the conditions of “no cell culture supplement, flat-bottom 2D growth, day 0” as “1.0” in relative terms, and the increase rate in “the expression level in spheroid proliferation on day 20” was determined by comparison.

[4] = day 20 of 3D spheroid culture, coated 96-well, 2D adhesion control without supplement = 1.0, ΔΔCt
[5] = day 20 of 3D spheroid culture, 2D control without supplement day 0 = 1.0, ΔΔCt
[6] = spheroids cultured for 20 days (FIG. 17 legend)

(Pro-Hyp-Gly)n [cell culture supplement]
spheroid formation in plates coated with solutions diluted further than 256-fold [1]: No formation of spheroids was observed
dilution of the 0.5% aqueous solution used for coating at which formation of spheroids was observed ([1]; dilutions 4-fold to 1024-fold): ≤ 256 -fold diluted
NANOG gene expression level (increase vs control) ([2]; 2D control cells = 1.0): 50.5 fold
OCT4 gene expression level (increase vs control) ([2]; 2D control cells = 1.0): 13.0 fold
SOX2 gene expression level (increase vs control) ([2]; 2D control cells = 1.0): 9.4 fold
GATA6 gene expression level (increase vs control) ([2]; control cells = 1.0): 2.2 fold
HAND1 gene expression level (increase vs control) ([2]; control cells = 1.0): 33.9 fold
SOX1 gene expression level (increase vs control) ([2]; control cells = 1.0): 7.1 fold
SOX17 gene expression level (increase vs control) ([2]; control cells = 1.0): 11.4 fold
GATA6 (mesoderm marker) gene expression ([3]; day 20 of 3D spheroid culture): no gene expression of GATA6 (mesoderm marker) was detected
NANOG gene expression level (increase vs control) [3, 4]: 28.7 fold
OCT4 gene expression level (increase vs control) [3, 4]: 1.5 fold
SOX2 gene expression level (increase vs control) [3, 4]: 24.0 fold
MAP2 gene expression level (increase vs control) [3, 5]: 2.7 fold
SOX17 gene expression level (increase vs control) [3, 5]: 124.7 fold
FOXA2 (endoderm) mRNA expression level [3, 6]: decreased
GATA4 (mesoderm) mRNA expression [3, 6]: undetectable
